Experimental findings from patent publication US9156856B2, “Apoptosis-inducing agents for the treatment of cancer and immune and autoimmune diseases” (AbbVie Inc., priority 2009, dated 2015) are described below.

Structures are written as SMILES.

The target in the assay is Bcl-2 (Homo sapiens (Human), UniProt P10415). Put plainly: Time Resolved-Fluorescence Resonance Energy Transfer (TR-FRET) Bcl-2 binding assay with F-Bak peptide probe. Conditions: GST-Bcl-2 1 nM, F-Bak peptide probe 100 nM, Tb-anti-GST antibody 1 nM; Ki by Wang's equation. As to the method: Determination of the utility of compounds having Formula (I) as binders to and inhibitors of anti-apoptotic Bcl-2 proteins was performed using the Time Resolved-Fluorescence Resonance Energy Transfer (TR-FRET) Assay. Tb-anti-GST antibody was purchased from Invitrogen (Catalog No. PV4216).
Bcl-2, sequence (P10415 whole entry): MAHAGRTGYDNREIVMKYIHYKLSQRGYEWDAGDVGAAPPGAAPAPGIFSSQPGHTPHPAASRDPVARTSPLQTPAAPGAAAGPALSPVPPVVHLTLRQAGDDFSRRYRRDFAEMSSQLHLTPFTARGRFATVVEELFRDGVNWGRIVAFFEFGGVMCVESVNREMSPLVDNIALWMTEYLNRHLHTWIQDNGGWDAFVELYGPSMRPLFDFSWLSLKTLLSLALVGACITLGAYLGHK
Representative compounds were serially diluted in dimethyl sulfoxide (DMSO) starting at 50 μM (2× starting concentration; 10% DMSO) and 10 μL were transferred into a 384-well plate. The samples are then mixed on a shaker for 1 minute and incubated for an additional 3 hours at room temperature. For each assay, the probe/antibody and protein/probe/antibody were included on each assay plate as negative and positive controls, respectively. Fluorescence was measured on the ENVISION plate reader (Perkin Elmer) using a 340/35 nm excitation filter and 520/525 (F-Bak peptide) and 495/510 nm (Tb-labeled […] antibody) emission filters Inhibition constants (Ki) are shown in TABLE 2 below and were determined using Wang's equation (Wang Z.-X. An Exact Mathematical Expression For Describing Competitive Binding Of Two Different Ligands To A Protein Molecule. FEBS Lett. 1995, 360:111-4).
The inhibition constant (Ki) is the dissociation constant of an enzyme-inhibitor complex or a protein/small molecule complex, wherein the small molecule is inhibiting binding of one protein to another protein. So a large K, value indicates a low binding affinity and a small Ki value indicates a high binding affinity.
The compounds are therefore expected to have utility in treatment of diseases during which anti-apoptotic Bcl-2 protein is expressed.
On the technique in general: TR-FRET usually uses a lanthanide donor and a delayed reading to cut background.
Usually Ki stands for a dissociation constant, usually derived from enzyme kinetics or from competition with a known ligand. Lower therefore signals higher affinity. Compound `COC1(Cc2cccc(C)c2)CCN(c2ccc(C(=O)NS(=O)(=O)c3cc([N+](=O)[O-])c(N[C@H](CCN(C)C)CSc4ccccc4)s3)cc2)CC1` [Example 2, N-{[5-({(1R)-3-(dimethylamino)-1-[(phenylthio)methyl]propyl}amino)-4-nitrothien-2-yl]sulfonyl}-4-[4-methoxy-4-(3-methylbenzyl)piperidin-1-yl]benzamide] returned a Ki of 82.9 nM. `O=C(NS(=O)(=O)c1cccs1)c1ccc(N2CCN(Cc3ccccc3-c3ccc(Cl)cc3)CC2)cc1` [Example 19, 4-{4-[(4′-chloro-1,1′-biphenyl-2-yl)methyl]piperazin-1-yl}-N-(thien-2-ylsulfonyl)benz amide]: affinity was put at a Ki of 234 nM. Compound `Cc1cc(-c2oncc2S(=O)(=O)NC(=O)c2ccc(N3CCN(Cc4ccccc4-c4ccc(Cl)cc4)CC3)cc2)n(C)n1` [Example 23, 4-{4-[(4′-chloro-1,1′-biphenyl-2-yl)methyl]piperazin-1-yl}-N-{[5-(1,3-dimethyl-1H-pyrazol-5-yl)isoxazol-4-yl]sulfonyl}benzamide] returned a Ki of 447 nM. The same measure for `CC(C)N(C)CC[C@H](CSc1ccccc1)Nc1sc(S(=O)(=O)NC(=O)c2ccc(N3CCN(Cc4ccccc4-c4ccc(Cl)cc4)CC3)cc2)cc1[N+](=O)[O-]` [Example 7, 4-{4-[(4′-chloro-1,1′-biphenyl-2-yl)methyl]piperazin-1-yl}-N-{[5-({(1R)-3-[isopropyl(methyl)amino]-1-[(phenylthio)methyl]propyl}amino)-4-nitrothien-2-yl]sulfonyl}benzamide]: 0.084 nM; for `Cc1nc(OC[C@@H]2CN(C(=O)OC(C)(C)C)CCO2)sc1S(=O)(=O)NC(=O)c1ccc(N2CCN(CC3=C(c4ccc(Cl)cc4)CC(C)(C)CC3)CC2)cc1Oc1cccc2[nH]cnc12` [Example 44, tert-butyl (2S)-2-{[(5-{[2-(1H-benzimidazol-4-yloxy)-4-(4-{[2-(4-chlorophenyl)-4,4-dimethylcyclohex-1-en-1-yl]methyl}piperazin-1-yl)benzoyl]sulfamoyl}-4-methyl-1,3-thiazol-2-yl)oxy]methyl}morpholine-4-carboxylate]: 24.8 nM; for `O=C(NS(=O)(=O)c1ccc(-c2ccno2)o1)c1ccc(N2CCN(Cc3ccccc3-c3ccc(Cl)cc3)CC2)cc1` [Example 31, 4-{4-[(4′-chloro-1,1′-biphenyl-2-yl)methyl]piperazin-1-yl}-N-[(5-isoxazol-5-yl-2-furyl)sulfonyl]benzamide]: 139 nM. In the case of `O=C(NS(=O)(=O)c1c(Cl)nc2sccn12)c1ccc(N2CCN(Cc3ccccc3-c3ccc(Cl)cc3)CC2)cc1` [Example 13, 4-{4-[(4′-chloro-1,1′-biphenyl-2-yl)methyl]piperazin-1-yl}-N-[(6-chloroimidazo[2,1-b][1,3]thiazol-5-yl)sulfonyl]benzamide], the Ki was determined as 388 nM. The compound `Cc1nsc(S(=O)(=O)NC(=O)c2ccc(N3CCN(Cc4ccccc4-c4ccc(Cl)cc4)CC3)cc2)c1Cl` [Example 24, 4-{4-[(4′-chloro-1,1′-biphenyl-2-yl)methyl]piperazin-1-yl}-N-[(4-chloro-3-methylisothiazol-5-yl)sulfonyl]benzamide] gave a Ki of 342 nM.

`Cc1nc(OC[C@@H]2CN(C(=O)OC(C)(C)C)CCO2)sc1S(=O)(=O)NC(=O)c1ccc(N2CCN(CC3=C(c4ccc(Cl)cc4)CC(C)(C)CC3)CC2)cc1Oc1cnc2[nH]ccc2c1` [Example 43, tert-butyl (2S)-2-{[(5-{[4-(4-{[2-(4-chlorophenyl)-4,4-dimethylcyclohex-1-en-1-yl]methyl}piperazin-1-yl)-2-(1H-pyrrolo[2,3-b]pyridin-5-yloxy)benzoyl]sulfamoyl}-4-methyl-1,3-thiazol-2-yl)oxy]methyl}morpholine-4-carboxylate] yielded a Ki of 46.5 nM. The same measure for `O=C(NS(=O)(=O)c1csc(C(F)(F)F)c1-c1ccccc1)c1ccc(N2CCN(Cc3ccccc3-c3ccc(Cl)cc3)CC2)cc1` [Example 16, 4-{4-[(4′-chloro-1,1′-biphenyl-2-yl)methyl]piperazin-1-yl}-N-{[4-phenyl-5-(trifluoromethyl)thien-3-yl]sulfonyl}benzamide]: 37.9 nM; for `CC1(C)CCC(CN2CCN(c3ccc(C(=O)NS(=O)(=O)c4cc([N+](=O)[O-])c(NCCCN5CCOCC5)s4)c(Oc4ccc5[nH]ccc5c4)c3)CC2)=C(c2ccc(Cl)cc2)C1` [Example 35, 4-(4-{[2-(4-chlorophenyl)-4,4-dimethylcyclohex-1-en-1-yl]methyl}piperazin-1-yl)-2-(1H-indol-5-yloxy)-N-({5-[(3-morpholin-4-ylpropyl)amino]-4-nitrothien-2-yl}sulfonyl)benzamide]: 2.07 nM; for `CN(C)CCCNc1sc(S(=O)(=O)NC(=O)c2ccc(N3CCN(CC4=C(c5ccc(Cl)cc5)CC(C)(C)CC4)CC3)cc2Oc2ccc3[nH]ccc3c2)cc1[N+](=O)[O-]` [Example 34, 4-(4-{[2-(4-chlorophenyl)-4,4-dimethylcyclohex-1-en-1-yl]methyl}piperazin-1-yl)-N-[(5-{[3-(dimethylamino)propyl]amino}-4-nitrothien-2-yl)sulfonyl]-2-(1H-indol-5-yloxy)benzamide]: 1.79 nM. `Cc1noc(C)c1S(=O)(=O)NC(=O)c1ccc(N2CCN(Cc3ccccc3-c3ccc(Cl)cc3)CC2)cc1` [Example 32, 4-{4-[(4′-chloro-1,1′-biphenyl-2-yl)methyl]piperazin-1-yl}-N-[(3,5-dimethylisoxazol-4-yl)sulfonyl]benzamide]: the Ki came to 438 nM. Next, `Cc1nc(OC[C@@H]2CN(C(=O)OC(C)(C)C)CCO2)sc1S(=O)(=O)NC(=O)c1ccc(N2CCN(CC3=C(c4ccc(Cl)cc4)CC(C)(C)CC3)CC2)cc1Oc1cccc2[nH]ncc12` [Example 47, (S)-tert-butyl 2-((5-(N-(2-(1H-indazol-4-yloxy)-4-(4-((2-(4-chlorophenyl)-4,4-dimethylcyclohex-1-enyl)methyl)piperazin-1-yl)benzoyl)sulfamoyl)-4-methylthiazol-2-yloxy)methyl)morpholine-4-carboxylate]: 20.4 nM; `CN(C)CC[C@H](CSc1ccccc1)Nc1sc(S(=O)(=O)NC(=O)c2ccc(N3CCC(=Cc4ccccc4C(F)(F)F)CC3)cc2)cc1[N+](=O)[O-]` [Example 36, N-{[5-({(1R)-3-(dimethylamino)-1-[(phenylthio)methyl]propyl}amino)-4-nitrothien-2-yl]sulfonyl}-4-{4-[2-(trifluoromethyl)benzylidene]piperidin-1-yl}benzamide]: 294 nM. The same measure for `Cc1c(S(=O)(=O)NC(=O)c2ccc(N3CCN(Cc4ccccc4-c4ccc(Cl)cc4)CC3)cc2)sc2ccc(Br)cc12` [Example 25, N-[(5-bromo-3-methyl-1-benzothien-2-yl)sulfonyl]-4-{4-[(4′-chloro-1,1′-biphenyl-2-yl)methyl]piperazin-1-yl}benzamide]: 372 nM; for `CCC(CC)NC(=O)c1nnc(S(=O)(=O)NC(=O)c2ccc(N3CCN(Cc4ccccc4-c4ccc(Cl)cc4)CC3)cc2)s1` [Example 28, 5-{[(4-{4-[(4′-chloro-1,1′-biphenyl-2-yl)methyl]piperazin-1-yl}benzoyl)amino]sulfonyl}-N-(1-ethylpropyl)-1,3,4-thiadiazole-2-carboxamide]: 417 nM; for `CC(=O)N(CCSc1ccccc1)C1CCN(S(=O)(=O)NC(=O)c2ccc(N3CCN(Cc4ccccc4-c4ccc(Cl)cc4)CC3)cc2)CC1` [Example 5, N-[(4-{acetyl[2-(phenylthio)ethyl]amino}piperidin-1-yl)sulfonyl]-4-{4-[(4′-chloro-1,1′-biphenyl-2-yl)methyl]piperazin-1-yl}benzamide]: 176 nM.

Turning to `Cc1c(S(=O)(=O)NC(=O)c2ccc(N3CCN(Cc4ccccc4-c4ccc(Cl)cc4)CC3)cc2)sc2ccc(F)cc12` [Example 17, 4-{4-[(4′-chloro-1,1′-biphenyl-2-yl)methyl]piperazin-1-yl}-N-[(5-fluoro-3-methyl-1-benzothien-2-yl)sulfonyl]benzamide], affinity was put at a Ki of 356 nM. `CC(=O)/N=c1\sc(S(=O)(=O)NC(=O)c2ccc(N3CCN(Cc4ccccc4-c4ccc(Cl)cc4)CC3)cc2)nn1C` [Example 10, N-{[(5Z)-5-(acetylimino)-4-methyl-4,5-dihydro-1,3,4-thiadiazol-2-yl]sulfonyl}-4-{4-[(4′-chloro-1,1′-biphenyl-2-yl)methyl]piperazin-1-yl}benzamide] displayed a Ki of 743 nM. The same measure for `O=C(NS(=O)(=O)N1CCOCC1)c1ccc(N2CCN(Cc3ccccc3-c3ccc(Cl)cc3)CC2)cc1` [Example 14, 4-{4-[(4′-chloro-1,1′-biphenyl-2-yl)methyl]piperazin-1-yl}-N-(morpholin-4-ylsulfonyl)benzamide]: 409 nM; for `Cc1cc(C)n2nc(S(=O)(=O)NC(=O)c3ccc(N4CCN(CC5=C(c6ccc(Cl)cc6)CC(C)(C)CC5)CC4)cc3Oc3cccc(Cl)c3)nc2n1` [Example 40, 2-(3-chlorophenoxy)-4-(4-{[2-(4-chlorophenyl)-4,4-dimethylcyclohex-1-en-1-yl]methyl}piperazin-1-yl)-N-[(5,7-dimethyl[1,2,4]triazolo[1,5-a]pyrimidin-2-yl)sulfonyl]benzamide]: 0.407 nM.
